# Molecular target: ALK5 (Homo sapiens (Human), UniProt P36897)
# Experiment: Evaluation experiment of ALK5 enzyme activity inhibition IC50 (ADP-Glo kinase assay)
# Assay type: biochemical
# Conditions: not given
# Description: 1. Preparation of a 1× kinase buffer: 40 mM Tris (pH 7.5), 20 mM MgCl2, 0.10% BSA, 1 mM DTT.
# 2. Compound preparation: The final detection concentration of the compound was 10 μM, which was prepared to a 100-fold concentration, i.e., 1 mM. 100 μL of the 100-fold compound was added in the second well of the 384-well plate, and 60 μL of 100% DMSO was added to the other wells. […] 50 nL of the compound was transferred to the reaction plate with echo.
# 3. Kinase reaction: The kinase was added to a 1× kinase buffer to form a 2× enzyme solution. […] The polypeptide TGFbR1 (purchased from Signal Chem, catalog number T36-58) and ATP were added to a 1× kinase buffer to form a 2× substrate solution. The final concentration of the substrate solution was peptide TGFbR1 0.1 mg/mL, ATP 7 μM. 2.5 μL of the 2× enzyme solution was added to the 384-well reaction plate (there was already 50 nL of 100% DMSO dissolved compound), and a 1× kinase buffer was added to a negative control well. The reaction solution was incubated at room temperature for 10 minutes. 2.5 μL of 2× substrate solution was added to the 384-well reaction plate. The 384-well plate was covered and incubated at 30° C. for 1 hour. ADP-Glo reagent (purchased from Promege, catalog number v9102) was equilibrated to room temperature. 5 μL of ADP-Glo reagent was transferred to the reaction well of the 384-well plate to stop the reaction.
# 4. Detection of reaction results: 10 μL of kinase detection reagent was transferred to each well, shaken for 1 minute, and let stand at room temperature for 30 minutes. The sample luminescence value was read at Synegy.
# 5. Curve fitting: The data of the luminescence reading were copied from the Synegy program. The value of the luminescence reading was converted to inhibition percentage by a formula (inhibition percentage=(max−sample RLU)/(max−min)×100, where “min” was a fluorescence reading for a control sample without enzyme; “max” was a fluorescence reading for a sample with DMSO as a control). The data were imported into MS Excel and GraphPad Prism was used for curve fitting. IC50 value was calculated.
# ALK5, sequence (P36897 34-503): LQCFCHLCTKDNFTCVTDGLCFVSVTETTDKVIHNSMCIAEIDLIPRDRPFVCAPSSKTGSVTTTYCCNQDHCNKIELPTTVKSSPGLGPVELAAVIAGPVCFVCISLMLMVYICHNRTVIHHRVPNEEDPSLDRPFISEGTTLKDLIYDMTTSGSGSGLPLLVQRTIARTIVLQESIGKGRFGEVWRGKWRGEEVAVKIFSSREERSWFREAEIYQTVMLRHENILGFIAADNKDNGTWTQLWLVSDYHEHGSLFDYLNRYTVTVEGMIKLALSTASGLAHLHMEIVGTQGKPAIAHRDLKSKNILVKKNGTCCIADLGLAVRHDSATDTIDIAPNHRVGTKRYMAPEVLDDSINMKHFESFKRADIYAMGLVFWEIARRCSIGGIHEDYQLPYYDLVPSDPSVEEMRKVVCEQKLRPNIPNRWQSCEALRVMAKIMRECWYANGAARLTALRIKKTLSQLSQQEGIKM
row,Structure (SMILES),IC50 [nM]
1,NC(=O)c1cnc2ccc(/C=C\c3cccc(C(F)(F)F)n3)cn12 [Compound 11],10

# Same assay, conditions: ALK5 25 nM, peptide TGFbR1 0.1 mg/mL, ATP 7 μM, 30° C. 1 hour, ADP-Glo luminescence
row,IC50 [nM],Structure (SMILES)
1,5.1,Cc1cccc(/C=C\c2ccn3ncc(C(N)=O)c3c2)n1 [Compound 13]
2,616,Cc1cccc(/C=C(/C(=O)O)c2ccc3ncc(C(N)=O)n3c2)n1 [Compound 17]
3,78,Cc1cccc(/C=C\c2ccc3ncc(C(N)=O)nc3c2)n1 [Compound 14]
4,34,Cc1cccc(/C=C(/C(=O)N(C)C)c2ccc3ncc(C(N)=O)n3c2)n1 [Compound 20]

row,Structure (SMILES),IC50 [nM]
1,Cc1cccc(C2=C(c3ccc4ncc(C(N)=O)n4c3)CCCC2)n1 [Compound 16],48
2,Cc1cccc(/C=C(/C(=O)OC(C)(C)C)c2ccc3ncc(C(N)=O)n3c2)n1 [Compound 17a],6.6
3,Cc1cccc(/C=C\c2ccc3ncc(C(=O)NC4CC4)n3c2)n1 [Compound 4],17
